Experimental data taken from patent publication US12440481B2, “Esters and carbamates as modulators of sodium channels” (VERTEX PHARMACEUTICALS INCORPORATED, priority 2019, dated 2025).
pIC50: −log10 of the molar value.

biological target: human NaV 1.8 (Homo sapiens, UniProt Q9Y5Y9); assay: E-VIPR Assay for Detecting and Measuring NaV Inhibition Properties; format: cell-based; conditions: HEK cells expressing a truncated form of human NaV 1.8; HS = human serum; read-out: EVIPR HS IC50
From the text: E-VIPR Assay for Detecting and Measuring NaV Inhibition Properties
Sodium ion channels are voltage-dependent proteins that can be activated by inducing membrane voltage changes by applying electric fields. The electrical stimulation instrument and methods of use, referred to as E-VIPR, are described in International Publication No. WO 2002/008748 A3 and C.-J. Huang et al. Characterization of voltage-gated sodium channel blockers by electrical stimulation and fluorescence detection of membrane potential, 24 Nature Biotech. 439-46 (2006), both of which are incorporated by reference in their entirety. The instrument comprises a microtiter plate handler, an optical system for exciting the coumarin dye while simultaneously recording the coumarin and oxonol emissions, a waveform generator, a current- or voltage-controlled amplifier, and parallel electrode pairs that are inserted into assay plate wells. Under integrated computer control, this instrument passes user-programmed electrical stimulus protocols to cells within the wells of the microtiter plate.
16-20 hours prior to running the assay on E-VIPR, HEK cells expressing a truncated form of human NaV 1.8 with full channel activity were seeded into microtiter 384-well plates, pre-coated with matrigel, at a density of 25,000 cells per well. 2.5-5% KIR2.1 Bacmam virus was added to the final cell suspension before seeding into cell plates. HEK cells were grown in Dulbecco's Modified Eagle's Medium (DMEM) supplemented with 10% FBS (Fetal Bovine Serum, qualified; Sigma #F4135), 1% NEAA (Non-Essential Amino Acids, Gibco #11140), 1% HEPES (Gibco #15630), 1% Pen-Strep (Penicillin-Streptomycin; Gibco #15140) and 5 μg/ml Blasticidin (Gibco #R210-01). Cells were expanded in vented cap cell culture flasks, with 90-95% humidity and 5% CO2.
Reagents and Stock Solutions:
• 100 mg/mL Pluronic F-127 (Sigma #P2443), in dry DMSO • Compound Plates: Corning 384-well Polypropylene Round Bottom #3656 • Cell Plates: 384-well tissue culture treated plates (Greiner #781091-1B) • 2.5-5% KIR 2.1 Bacmam virus (produced in-house), prepared as described in Section 3.3 of J. A. Fornwald et al., Gene Expression in Mammalian Cells Using BacMam, a Modified Baculovirus System, 1350 Methods in Molecular Biology 95-116 (2016), the entire contents of which are incorporated by reference. The concentration used can be dependent on viral titer of each batch. • 5 mM DiSBAC6 (3), a voltage sensitive oxonol acceptor (CAS number 169211-44-3; 5-[3-(1,3-dihexylhexahydro-4,6-dioxo-2-thioxo-5-pyrimidinyl)-2-propen-1-ylidene]-1,3-dihexyldihydro-2-thioxo-4,6(1H,5H)-pyrimidinedione), in dry DMSO. The preparation of DiSBAC6 (3) is analogous to that of DiSBAC4 (3) as described in Voltage Sensing by Fluorescence Resonance Energy Transfer in Single Cells, Gonzalez, J. E. and Tsien, R. Y. (1995) Biophys. J. 69, 1272-1280. • 5 mM CC2-DMPE, a commercially available membrane-bound coumarin phospholipid FRET donor (ThermoFisher Scientific catalog number K1017, CAS number 393782-57-5; tetradecanoic acid, 1,1′-[(1R)-1-[8-(6-chloro-7-hydroxy-2-oxo-2H-1-benzopyran-3-yl)-3-hydroxy-3-oxido-8-oxo-2,4-dioxa-7-aza-3-phosphaoct-1-yl]-1,2-ethanediyl] ester) was prepared in dry DMSO. […]

Sequence of human NaV 1.8 (Q9Y5Y9 whole entry, looked up, the tested form may be a part): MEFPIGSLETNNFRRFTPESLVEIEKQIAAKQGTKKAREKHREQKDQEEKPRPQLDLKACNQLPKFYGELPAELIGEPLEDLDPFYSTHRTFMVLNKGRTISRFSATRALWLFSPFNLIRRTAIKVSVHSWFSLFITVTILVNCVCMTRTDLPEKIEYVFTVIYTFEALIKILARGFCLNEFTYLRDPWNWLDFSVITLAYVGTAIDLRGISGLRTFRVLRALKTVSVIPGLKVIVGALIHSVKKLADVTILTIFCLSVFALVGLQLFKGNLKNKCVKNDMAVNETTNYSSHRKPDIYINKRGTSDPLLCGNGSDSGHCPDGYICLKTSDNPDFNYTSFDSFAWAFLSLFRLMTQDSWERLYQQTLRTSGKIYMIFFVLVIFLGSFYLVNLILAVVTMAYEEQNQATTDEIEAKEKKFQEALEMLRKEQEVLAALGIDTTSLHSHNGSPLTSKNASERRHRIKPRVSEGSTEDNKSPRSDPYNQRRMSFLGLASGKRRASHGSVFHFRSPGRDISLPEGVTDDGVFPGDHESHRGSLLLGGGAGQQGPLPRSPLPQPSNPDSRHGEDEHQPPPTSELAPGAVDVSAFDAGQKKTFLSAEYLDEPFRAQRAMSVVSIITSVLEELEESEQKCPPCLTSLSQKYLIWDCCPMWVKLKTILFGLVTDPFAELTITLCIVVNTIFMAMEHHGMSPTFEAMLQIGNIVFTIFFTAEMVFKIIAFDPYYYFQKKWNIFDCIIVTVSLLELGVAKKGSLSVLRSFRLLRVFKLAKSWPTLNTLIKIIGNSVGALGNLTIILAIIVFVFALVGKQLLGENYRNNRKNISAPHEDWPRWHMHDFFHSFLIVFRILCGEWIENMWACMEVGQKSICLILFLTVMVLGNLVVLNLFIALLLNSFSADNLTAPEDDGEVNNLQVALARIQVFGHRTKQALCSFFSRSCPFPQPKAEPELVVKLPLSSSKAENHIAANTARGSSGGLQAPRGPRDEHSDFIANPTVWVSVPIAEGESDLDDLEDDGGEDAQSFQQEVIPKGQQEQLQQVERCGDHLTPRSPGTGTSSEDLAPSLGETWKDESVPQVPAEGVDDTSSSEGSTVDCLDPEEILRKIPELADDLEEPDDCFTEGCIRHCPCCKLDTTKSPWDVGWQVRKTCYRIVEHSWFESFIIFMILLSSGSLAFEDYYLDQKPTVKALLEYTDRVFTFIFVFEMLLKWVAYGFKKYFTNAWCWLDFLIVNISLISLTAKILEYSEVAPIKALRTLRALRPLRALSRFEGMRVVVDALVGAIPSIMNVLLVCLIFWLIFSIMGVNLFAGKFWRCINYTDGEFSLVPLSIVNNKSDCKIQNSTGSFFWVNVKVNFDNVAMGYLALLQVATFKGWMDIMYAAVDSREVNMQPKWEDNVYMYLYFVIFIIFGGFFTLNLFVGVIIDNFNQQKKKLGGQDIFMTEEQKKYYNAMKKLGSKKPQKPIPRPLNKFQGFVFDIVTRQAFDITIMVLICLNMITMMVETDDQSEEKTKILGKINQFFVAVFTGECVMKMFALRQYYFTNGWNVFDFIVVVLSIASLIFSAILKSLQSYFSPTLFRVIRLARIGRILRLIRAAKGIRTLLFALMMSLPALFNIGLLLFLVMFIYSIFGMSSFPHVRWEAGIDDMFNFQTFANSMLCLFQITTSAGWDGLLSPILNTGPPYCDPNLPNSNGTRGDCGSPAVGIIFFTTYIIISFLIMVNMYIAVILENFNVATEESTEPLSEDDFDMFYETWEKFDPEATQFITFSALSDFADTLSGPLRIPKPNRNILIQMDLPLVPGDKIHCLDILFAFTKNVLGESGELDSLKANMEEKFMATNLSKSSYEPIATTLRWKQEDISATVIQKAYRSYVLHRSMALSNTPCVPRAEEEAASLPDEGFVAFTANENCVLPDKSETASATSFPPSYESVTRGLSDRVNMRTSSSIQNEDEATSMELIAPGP

Row | Compound | pIC50
1 | COC(=O)c1cc(NC(=O)c2c(Oc3ccc(OC(F)(F)F)cc3Cl)ccc(C3CC3)c2C)c(C)cn1 [Compound 22, Methyl 4-[[6-[2-chloro-4-(trifluoromethoxy)phenoxy]-3-cyclopropyl-2-methyl-benzoyl]amino]-5-methyl-pyridine-2-carboxylate] | ≤ 6.00
2 | [2H]C([2H])([2H])Oc1cc(OC(F)(F)F)ccc1Oc1cc(C(F)(F)F)c(F)cc1C(=O)Nc1ccc(C(=O)OC)nc1 [Compound 1, Methyl 5-[[5-fluoro-2-[2-(trideuteriomethoxy)-4-(trifluoromethoxy)phenoxy]-4-(trifluoromethyl)benzoyl]amino]pyridine-2-carboxylate] | ≤ 6.00
3 | [2H]C([2H])([2H])Oc1cc(OC(F)(F)F)ccc1Oc1ccc(C(F)(F)F)cc1C(=O)Nc1ccnc(NC(=O)OC(C)(C)C)c1 [Compound 9, tert-butyl N-[4-[[2-[2-(trideuteriomethoxy)-4-(trifluoromethoxy)phenoxy]-5-(trifluoromethyl)benzoyl]amino]-2-pyridyl]carbamate] | ≤ 6.00
4 | COC(=O)c1ccc(NC(=O)c2c(Oc3ccc(OC(F)(F)F)cc3OC)ccc(C(F)(F)F)c2F)cn1 [Compound 15, Methyl 5-[[2-fluoro-6-[2-methoxy-4-(trifluoromethoxy)phenoxy]-3-(trifluoromethyl)benzoyl]amino]pyridine-2-carboxylate] | 6.30 to 7.00
5 | [2H]C([2H])([2H])Oc1cc(OC(F)(F)F)ccc1Oc1ccc(C(F)(F)F)c(F)c1C(=O)Nc1ccc(C(=O)OC)nc1 [Compound 11, methyl 5-[[2-fluoro-6-[2-(trideuteriomethoxy)-4-(trifluoromethoxy)phenoxy]-3-(trifluoromethyl)benzoyl]amino]pyridine-2-carboxylate] | 6.30 to 7.00
6 | COC(=O)c1cc(NC(=O)c2c(Oc3ccc(OC(F)(F)F)cc3)ccc(C(F)(F)F)c2F)ccn1 [Compound 3, methyl 4-[[2-fluoro-6-[4-(trifluoromethoxy)phenoxy]-3-(trifluoromethyl)benzoyl]amino]pyridine-2-carboxylate] | 6.30 to 7.00
7 | [2H]C([2H])([2H])Oc1cc(OC(F)(F)F)ccc1Oc1ccc(C(F)(F)F)cc1C(=O)Nc1ccc(C(=O)OC)nc1 [Compound 12, methyl 5-[[2-[2-(trideuteriomethoxy)-4-(trifluoromethoxy)phenoxy]-5-(trifluoromethyl)benzoyl]amino]pyridine-2-carboxylate] | ≤ 6.00
8 | [2H]C([2H])([2H])Oc1cc(OC(F)(F)F)ccc1Oc1cc(C(F)(F)F)c(F)cc1C(=O)Nc1ccnc(C(=O)OC)c1 [Compound 6, methyl 4-[[5-fluoro-2-[2-(trideuteriomethoxy)-4-(trifluoromethoxy)phenoxy]-4-(trifluoromethyl)benzoyl]amino]pyridine-2-carboxylate] | 6.30 to 7.00
9 | COC(=O)c1ccc(NC(=O)c2c(Oc3ccc(F)cc3OC)ccc(C(F)(F)F)c2F)cn1 [Compound 10, methyl 5-[[2-fluoro-6-(4-fluoro-2-methoxy-phenoxy)-3-(trifluoromethyl)benzoyl]amino]pyridine-2-carboxylate] | ≤ 6.00
10 | [2H]C([2H])([2H])Oc1cc(OC(F)(F)F)ccc1Oc1ccc(C(F)(F)F)cc1C(=O)Nc1ccnc(C(=O)OC)c1 [Compound 8, methyl 4-[[2-[2-(trideuteriomethoxy)-4-(trifluoromethoxy)phenoxy]-5-(trifluoromethyl)benzoyl]amino]pyridine-2-carboxylate] | 6.00 to 6.30
11 | COC(=O)c1nccc(NC(=O)c2c(Oc3ccc(OC(F)(F)F)cc3OC)ccc(C(F)(F)F)c2F)c1C [Compound 21, Methyl 4-[[2-fluoro-6-[2-methoxy-4-(trifluoromethoxy)phenoxy]-3-(trifluoromethyl)benzoyl]amino]-3-methyl-pyridine-2-carboxylate] | ≤ 6.00
12 | COC(=O)c1cc(NC(=O)c2c(Oc3ccc(OC(F)(F)F)c(F)c3C)ccc(C(F)(F)F)c2C)c(C)cn1 [Compound 16, Methyl 4-[[6-[3-fluoro-2-methyl-4-(trifluoromethoxy)phenoxy]-2-methyl-3-(trifluoromethyl)benzoyl]amino]-5-methyl-pyridine-2-carboxylate] | > 7.00
13 | COC(=O)c1ccnc(NC(=O)c2c(Oc3ccc(OC(F)(F)F)c(F)c3OC)ccc(C(F)(F)F)c2C)c1 [Compound 24, Methyl 2-[[6-[3-fluoro-2-methoxy-4-(trifluoromethoxy)phenoxy]-2-methyl-3-(trifluoromethyl)benzoyl]amino]pyridine-4-carboxylate] | ≤ 6.00
14 | COC(=O)c1ccc(NC(=O)c2c(Oc3ccc(OC(F)(F)F)cc3)ccc(C(F)(F)F)c2F)cn1 [Compound 13, methyl 5-[[2-fluoro-6-[4-(trifluoromethoxy)phenoxy]-3-(trifluoromethyl)benzoyl]amino]pyridine-2-carboxylate] | ≤ 6.00
15 | COC(=O)c1cc(NC(=O)c2c(Oc3ccc(OC(F)(F)F)c(F)c3C)ccc(C(F)(F)F)c2F)c(C)cn1 [Compound 17, Methyl 4-[[2-fluoro-6-[3-fluoro-2-methyl-4-(trifluoromethoxy)phenoxy]-3-(trifluoromethyl)benzoyl]amino]-5-methyl-pyridine-2-carboxylate] | > 7.00

Other lines, results leading:

Row | pIC50 | Compound
16 | 6.30 to 7.00 | COC(=O)c1cc(NC(=O)c2c(Oc3ccc(OC(F)(F)F)cc3OC)ccc(C(F)(F)F)c2O)ccn1 [Compound 25, Methyl 4-[[2-hydroxy-6-[2-methoxy-4-(trifluoromethoxy)phenoxy]-3-(trifluoromethyl)benzoyl]amino]pyridine-2-carboxylate]
17 | ≤ 6.00 | COC(=O)c1cc(NC(=O)c2c(Oc3ccc(OC(F)(F)F)cc3OC)ccc(C(F)(F)F)c2F)c(C2CC2)cn1 [Compound 26, methyl 5-cyclopropyl-4-(2-fluoro-6-(2-methoxy-4-(trifluoromethoxy)phenoxy)-3-(trifluoromethyl)benzamido)picolinate]
18 | 6.30 to 7.00 | COC(=O)c1nccc(NC(=O)c2c(Oc3ccc(OC(F)(F)F)c(F)c3OC)ccc(C(F)(F)F)c2F)c1F [Compound 30]
19 | ≤ 6.00 | COC(=O)c1cc(NC(=O)c2c(Oc3ccc(OC(F)(F)F)c(F)c3OC)ccc(C(F)(F)F)c2C)c(C2CC2)cn1 [Compound 28, methyl 5-cyclopropyl-4-(6-(3-fluoro-2-methoxy-4-(trifluoromethoxy)phenoxy)-2-methyl-3-(trifluoromethyl)benzamido)picolinate]
20 | ≤ 6.00 | COC(=O)c1cc(NC(=O)c2c(Oc3ccc(OC(F)(F)F)c(F)c3OC)ccc(C(F)(F)F)c2F)c(C2CC2)cn1 [Compound 27, methyl 5-cyclopropyl-4-(2-fluoro-6-(3-fluoro-2-methoxy-4-(trifluoromethoxy)phenoxy)-3-(trifluoromethyl)benzamido)picolinate]
21 | 6.00 to 6.30 | COC(=O)c1nccc(NC(=O)c2c(Oc3ccc(OC(F)(F)F)cc3OC)ccc(C(F)(F)F)c2F)c1F [Compound 29, methyl 3-fluoro-4-(2-fluoro-6-(2-methoxy-4-(trifluoromethoxy)phenoxy)-3-(trifluoromethyl)benzamido)picolinate]
22 | 6.30 to 7.00 | COC(=O)c1cc(NC(=O)c2c(Oc3ccc(OC(F)(F)F)c(F)c3OC)ccc(C(F)(F)F)c2F)cc(C(=O)OC)n1 [Compound 35, dimethyl 4-(2-fluoro-6-(3-fluoro-2-methoxy-4-(trifluoromethoxy)phenoxy)-3-(trifluoromethyl)benzamido)pyridine-2,6-dicarboxylate]
23 | ≤ 6.00 | COC(=O)c1nccc(NC(=O)c2c(Oc3ccc(OC(F)(F)F)c(F)c3OC)ccc(C(F)(F)F)c2C)c1C [Compound 32, methyl 4-(6-(3-fluoro-2-methoxy-4-(trifluoromethoxy)phenoxy)-2-methyl-3-(trifluoromethyl)benzamido)-3-methylpicolinate]
24 | ≤ 6.00 | COC(=O)c1nccc(NC(=O)c2c(Oc3ccc(OC(F)(F)F)c(F)c3OC)ccc(C(F)(F)F)c2C)c1F [Compound 31, methyl 3-fluoro-4-(6-(3-fluoro-2-methoxy-4-(trifluoromethoxy)phenoxy)-2-methyl-3-(trifluoromethyl)benzamido)picolinate]
